Test results taken from US7186722B2, “2-heteroaryl-3,4-dihydro-2h-pyrrole derivatives and the use thereof as pesticides” (Bayer Cropscience AG, priority 2001, dated 2007).

tested on: not listed separately; test: logP determination by HPLC (reversed-phase C 18), EEC Directive 79/831 Annex V.A8; assay type: physicochemical; conditions: pH 2.3
Protocol: The stated logP values were determined in accordance with EEC Directive 79/831 Annex V.A8 by HPLC (High Performance Liquid Chromatography), using a reversed-phase column (C 18). Temperature: 43° C.
In the acidic range, the determination was carried out at pH 2.3 using the mobile phases 0.1% aqueous phosphoric acid and acetonitrile; linear gradient from 10% acetonitrile to 90% acetonitrile.
In the neutral range, the determination was carried out at pH 7.5 using the mobile phases 0.01 molar aqueous phosphate buffer solution and acetonitrile; linear gradient from 10% acetonitrile to 90% acetonitrile.
Calibration was carried out using unbranched alkan-2-ones (having 3 to 16 carbon atoms) with known logP values (determination of the logP values by the retention times using linear interpolation between two successive alkanones).

| SMILES | chromatographic logP |
| --- | --- |
| Fc1cccc(F)c1C1=NC(c2ccc(Cl)nc2)CC1 (centres unmarked) [Example 9, 2-(6-chloro-3-pyridinyl)-5-(2,6-difluorophenyl)-3,4-dihydro-2H-pyrrole] | 1.93 |

same assay, conditions: pH 2.3; HPLC, 0.1% aqueous phosphoric acid/acetonitrile; 43° C.; read-out: log P (pH 2.3)

| SMILES | chromatographic logP |
| --- | --- |
| CC(C)(C)OC(=O)NC(CCC(=O)c1c(F)cccc1F)c1cccs1 (centres unmarked) [II-2] | 4.48 |
| CC(C)(C)OC(=O)NC(CCC(=O)c1c(F)cccc1F)c1sccc1Cl (centres unmarked) [II-3] | 4.28 |

same assay, conditions: reversed-phase C18 HPLC column; pH 2.3; HPLC, 0.1% aqueous phosphoric acid/acetonitrile; 43° C.; read-out: log P (pH 2.3)

| chromatographic logP | SMILES |
| --- | --- |
| 3.33 | [N-]=[N+]=NC(CCC(=O)c1c(F)cccc1F)c1ccc(Cl)nc1 (centres unmarked) [III-2, 4-azido-4-(6-chloro-3-pyridinyl)-1-(2,6-difluorophenyl)-1-butanone] |
| 4.2 | CC(C)(C)OC(=O)NC(CCC(=O)c1c(F)cccc1F)c1cc2ccccc2s1 (centres unmarked) [II-5] |
| 4.29 | CC(C)(C)OC(=O)NC(CCC(=O)c1c(F)cccc1F)c1ccc(Br)s1 (centres unmarked) [II-1, tert-butyl 1-(5-bromo-2-thienyl)-4-(2,6-difluorophenyl)-4-oxobutylcarbamate] |
| 3.78 | O=C(/C=C/c1cc(Br)cs1)c1c(F)cccc1F [XVIII-1, 3-(4-bromo-2-thienyl)-1-(2,6-difluorophenyl)-2-propen-1-one] |
| 2.39 | CC(C)(C)OC(=O)N1C(=O)CCC1c1cccs1 (centres unmarked) [IX-2] |
| 3.34 | Fc1cccc(F)c1C1=NC(c2sccc2Cl)CC1 (centres unmarked) [Example 3] |
| 4.14 | O=C(c1c(F)cccc1F)C1CC1c1cc(Br)cs1 (centres unmarked) [XVII-1, [2-(4-bromo-2-thienyl)cyclopropyl](2,6-difluorophenyl)methanone] |
| 3.45 | Fc1cccc(F)c1C1=NC(c2ccc(Br)s2)CC1 (centres unmarked) [Example 1, 2-(5-bromo-2-thienyl)-5-(2,6-difluorophenyl)-3,4-dihydro-2H-pyrrole] |
| 1.95 | Fc1cccc(F)c1C1=NC(c2cccs2)CC1 (centres unmarked) [Example 2] |
| 2.87 | O=C(/C=C/c1ccc(Cl)nc1)c1c(F)cccc1F [XVIII-2, 3-(6-chloro-3-pyridinyl)-1-(2,6-difluorophenyl)-2-propen-1-one] |
| 3.03 | CC(C)(C)OC(=O)N1C(=O)CCC1c1cc2ccccc2s1 (centres unmarked) [IX-5] |
| 3.03 | CC(C)(C)OC(=O)N1C(=O)CCC1c1ccc(Br)s1 (centres unmarked) [IX-1, tert-butyl 2-(5-bromo-2-thienyl)-5-oxo-1-pyrrolidinecarboxylate] |
| 4.84 | Fc1cccc(F)c1C1=NC(c2ccc(-c3cccc(OC(F)(F)F)c3)s2)CC1 (centres unmarked) [Example 12, 5-(2,6-difluorophenyl)-2-{5-[3-(trifluoromethoxy)phenyl]-2-thienyl}-3,4-dihydro-2H-pyrrole] |
| 3.41 | Fc1cccc(F)c1C1=NC(c2cc(Br)cs2)CC1 (centres unmarked) [Example 8, 2-(4-bromo-2-thienyl)-5-(2,6-difluorophenyl)-3,4-dihydro-2H-pyrrole] |
| 1.33 | Cc1ccsc1C1CCC(=O)N1 (centres unmarked) [XI-4] |
| 1.41 | O=C1CCC(c2sccc2Cl)N1 (centres unmarked) [XI-3] |
| 2.92 | O=C(c1c(F)cccc1F)C1CC1c1ccc(Cl)nc1 (centres unmarked) [XVII-2, [2-(6-chloro-3-pyridinyl)cyclopropyl](2,6-difluorophenyl)methanone] |

| chromatographic logP | SMILES |
| --- | --- |
| 3.11 | Fc1cccc(F)c1C1=NC(c2cc3ccccc3s2)CC1 (centres unmarked) [Example 5] |
| 4.4 | O=C(c1c(F)cccc1F)C1CC1c1ccc(-c2ccc(OC(F)(F)F)cc2)nc1 (centres unmarked) [XVII-3, (2,6-difluorophenyl)(2-{6-[4-(trifluoromethoxy)phenyl]-3-pyridinyl}cyclopropyl)methanone] |
| 3.37 | O=C(CCC(Cl)c1ccc(Cl)nc1)c1c(F)cccc1F (centres unmarked) [XV-2, 4-(6-chloro-3-pyridinyl)-4-chloro-1-(2,6-difluorophenyl)-1-butanone] |
| 4.66 | Fc1cccc(F)c1C1=NC(c2cc(-c3ccc(OC(F)(F)F)cc3)cs2)CC1 (centres unmarked) [Example 14, 5-(2,6-difluorophenyl)-2-{4-[4-(trifluoromethoxy)phenyl]-2-thienyl}-3,4-dihydro-2H-pyrrole] |
| 2.65 | Cc1ccsc1C1CCC(=O)N1C(=O)OC(C)(C)C (centres unmarked) [IX-4] |
| 1.73 | O=C1CCC(c2cc3ccccc3s2)N1 (centres unmarked) [XI-5] |
| 2.34 | Cc1ccsc1C1CCC(c2c(F)cccc2F)=N1 (centres unmarked) [Example 4] |
| 3 | [N-]=[N+]=NC(CCC(=O)c1c(F)cccc1F)c1cc(Br)cs1 (centres unmarked) [III-1, 4-azido-4-(4-bromo-2-thienyl)-1-(2,6-difluorophenyl)-1-butanone] |
| 1.03 | O=C1CCC(c2cccs2)N1 (centres unmarked) [XI-2] |
| 4.78 | [N-]=[N+]=NC(CCC(=O)c1c(F)cccc1F)c1ccc(-c2ccc(OC(F)(F)F)cc2)nc1 (centres unmarked) [III-3, 4-azido-1-(2,6-difluorophenyl)-4-{6-[4-(trifluoromethoxy)phenyl]-3-pyridinyl}-1-butanone] |
| 5.16 | Fc1cccc(F)c1C1=NC(c2ccc(-c3ccc(OC(F)(F)F)cc3)s2)CC1 (centres unmarked) [Example 11, 5-(2,6-difluorophenyl)-2-{5-[4-(trifluoromethoxy)phenyl]-2-thienyl}-3,4-dihydro-2H-pyrrole] |
| 4.27 | Cc1ccsc1C(CCC(=O)c1c(F)cccc1F)NC(=O)OC(C)(C)C (centres unmarked) [II-4] |
| 4.88 | O=C(CCC(Cl)c1ccc(-c2ccc(OC(F)(F)F)cc2)nc1)c1c(F)cccc1F (centres unmarked) [XV-3, 4-chloro-1-(2,6-difluorophenyl)4-{6-[4-(trifluoromethoxy)phenyl]-3-pyridinyl}-1-butanone] |
| 3 | O=C(CCC(Cl)c1cc(Br)cs1)c1c(F)cccc1F (centres unmarked) [XV-1, 4-(4-bromo-2-thienyl)4-chloro-1-(2,6-difluorophenyl)-1-butanone] |
| 4.08 | Fc1cccc(F)c1C1=NC(c2cc(-c3cccc(OC(F)(F)F)c3)cs2)CC1 (centres unmarked) [Example 13, 5-(2.6-difluorophenyl)-2-{4-[3-(trifluoromethoxy)phenyl]-2-thienyl}-3,4-dihydro-2H-pyrrole] |
| 3.5 | Fc1cccc(F)c1C1=NC(c2ccc(-c3ccc(OC(F)(F)F)cc3)nc2)CC1 (centres unmarked) [Example 10, 5-[5-(2,6-difluorophenyl)-3,4-dihydro-2H-pyrrol-2-yl]-2-[4-(trifluoromethoxy)phenyl]pyridine] |
| 1.62 | O=C1CCC(c2ccc(Br)s2)N1 (centres unmarked) [XI-1, 5-(5-bromo-2-thienyl)-2-pyrrolidinone] |

same assay, conditions: reversed-phase C18 HPLC column; pH 7.5; HPLC, 0.01 molar aqueous phosphate buffer/acetonitrile; 43° C.; read-out: log P (pH 7.5)

| chromatographic logP | SMILES |
| --- | --- |
| 2.77 | CC(C)(C)OC(=O)N1C(=O)CCC1c1sccc1Cl (centres unmarked) [IX-3] |

tested on: caterpillars of the army worm (Spodoptera frugiperda); test: Spodoptera frugiperda Test; assay type: in vivo; conditions: 500 ppm, cabbage leaves dipped
Protocol: Spodoptera frugiperda Test
• Solvent: 30 parts by weight of dimethylformamide. • Emulsifier: 1 part by weight of alkylaryl polyglycol ether
To produce a suitable preparation of active compound, 1 part by weight of active compound is mixed with the stated amount of solvent and emulsifier, and the concentrate is diluted with emulsifier-containing water to the desired concentration.
Cabbage leaves (Brassica oleracea) are treated by being dipped into the preparation of active compound of the desired concentration and are populated with caterpillars of the army worm (Spodoptera frugiperda) while the leaves are still moist.
After the desired period of time, the kill in % is determined. 100% means that all caterpillars have been killed; 0% means that none of the caterpillars have been killed.

| SMILES | Kill rate in % after 7 d [%] |
| --- | --- |
| Fc1cccc(F)c1C1=NC(c2cc3sc(-c4ccc(OC(F)(F)F)cc4)cc3s2)CC1 (centres unmarked) [drawing 91] | 100 |
| Fc1cccc(F)c1C1=NC(c2ccc(Cl)nc2)CC1 (centres unmarked) [drawing 96] | 100 |

same assay, conditions: 1000 ppm, cabbage leaves dipped

| SMILES | Kill rate in % after 7 d [%] |
| --- | --- |
| Fc1cccc(F)c1C1=NC(c2cc(-c3ccc(OC(F)(F)F)cc3)cs2)CC1 (centres unmarked) [drawing 95] | 100 |
| Fc1cccc(F)c1C1=NC(c2cc(Br)cs2)CC1 (centres unmarked) [drawing 93] | 100 |
| Fc1cccc(F)c1C1=NC(c2cc(-c3cccc(OC(F)(F)F)c3)cs2)CC1 (centres unmarked) [drawing 94] | 100 |
| Fc1cccc(F)c1C1=NC(c2ccc(-c3cccc(OC(F)(F)F)c3)s2)CC1 (centres unmarked) [drawing 92] | 100 |
